The term EC50 denotes the concentration that produces a half-maximal response. The IC50 is the concentration needed to halve the response being measured.

Results on eight molecules are retold here after publication PMC2744590 (Biochimica et biophysica acta, 2009).

Experiment [1] has as its target α4 with wild-type β2 nAChR, (α4)2(β2)3 (Homo sapiens, UniProt P17787+P43681). The experiment in a line: Two-electrode voltage clamp of receptors expressed in Xenopus oocytes. In kind it is cell-based. On the technique in general: Two-electrode voltage clamp holds a large cell at a set potential and records current.
In a further experiment the target is α4β4 receptor. To be noted: read-out: IC50 inhibiting binding of [3H]epibatidine; cited from earlier work.
The subject of a further experiment is α4β2 and α4β4 nAChRs. The note with it: range over both agonists and both receptors; cited from earlier work.
The target in the next experiment is α4 with β2F119Q nAChR (Homo sapiens, UniProt P17787+P43681, F144Q). The experiment in a line: Two-electrode voltage clamp of receptors expressed in Xenopus oocytes. The experiment is classed as cell-based.
α4 with β2F119Q nAChR, sequence (P43681 29-627, stated change not applied): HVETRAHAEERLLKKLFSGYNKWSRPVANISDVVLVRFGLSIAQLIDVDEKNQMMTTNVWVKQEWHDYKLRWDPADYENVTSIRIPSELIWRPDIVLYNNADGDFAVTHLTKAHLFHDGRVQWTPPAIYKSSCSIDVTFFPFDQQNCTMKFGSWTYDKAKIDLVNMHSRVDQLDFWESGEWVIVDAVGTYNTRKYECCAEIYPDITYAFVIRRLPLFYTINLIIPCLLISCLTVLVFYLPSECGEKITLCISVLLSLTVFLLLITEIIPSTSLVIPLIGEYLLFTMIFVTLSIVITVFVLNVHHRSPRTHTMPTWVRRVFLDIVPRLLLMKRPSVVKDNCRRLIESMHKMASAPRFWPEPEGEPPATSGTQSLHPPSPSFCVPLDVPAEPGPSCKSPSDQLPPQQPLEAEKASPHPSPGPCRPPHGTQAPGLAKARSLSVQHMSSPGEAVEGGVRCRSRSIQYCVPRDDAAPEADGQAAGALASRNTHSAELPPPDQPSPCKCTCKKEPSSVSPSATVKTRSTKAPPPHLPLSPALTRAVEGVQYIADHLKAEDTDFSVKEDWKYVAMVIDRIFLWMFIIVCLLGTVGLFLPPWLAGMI
α4 with β2F119Q nAChR, sequence (P17787 26-502 F144Q): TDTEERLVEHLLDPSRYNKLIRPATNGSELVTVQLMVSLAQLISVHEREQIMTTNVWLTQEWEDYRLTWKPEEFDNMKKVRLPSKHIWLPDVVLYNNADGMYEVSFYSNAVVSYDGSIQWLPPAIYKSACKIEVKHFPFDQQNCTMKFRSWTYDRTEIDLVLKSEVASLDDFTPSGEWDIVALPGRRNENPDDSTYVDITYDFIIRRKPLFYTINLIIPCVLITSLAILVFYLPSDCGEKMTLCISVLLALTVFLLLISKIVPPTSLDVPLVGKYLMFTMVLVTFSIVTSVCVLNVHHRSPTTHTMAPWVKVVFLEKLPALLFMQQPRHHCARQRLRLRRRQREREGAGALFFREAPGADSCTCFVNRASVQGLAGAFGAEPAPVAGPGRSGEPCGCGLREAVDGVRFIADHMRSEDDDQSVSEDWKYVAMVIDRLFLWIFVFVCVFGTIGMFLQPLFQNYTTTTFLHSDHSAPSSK
In experiment [2] the target is nicotinic (α4)2(β2)3 receptors. The note with it: cited from earlier work.
The target of a further experiment is α4 with β2S113R nAChR (Homo sapiens, UniProt P17787+P43681, S138R). The experiment can be described thus: Two-electrode voltage clamp of receptors expressed in Xenopus oocytes. In kind it is cell-based.
α4 with β2S113R nAChR, sequence (P43681 29-627 limits assumed): as the sequence (P43681 29-627, stated change not applied) above
α4 with β2S113R nAChR, sequence (P17787 26-502 S138R): as the sequence (P17787 26-502 F144Q) above, with S113R, Q119F counted along it
In the next experiment the target is rat α4β4 nAChRs (Rattus norvegicus, UniProt P09483+P12392). In kind it is binding.
rat α4β4 nAChRs, sequence (P09483 31-630): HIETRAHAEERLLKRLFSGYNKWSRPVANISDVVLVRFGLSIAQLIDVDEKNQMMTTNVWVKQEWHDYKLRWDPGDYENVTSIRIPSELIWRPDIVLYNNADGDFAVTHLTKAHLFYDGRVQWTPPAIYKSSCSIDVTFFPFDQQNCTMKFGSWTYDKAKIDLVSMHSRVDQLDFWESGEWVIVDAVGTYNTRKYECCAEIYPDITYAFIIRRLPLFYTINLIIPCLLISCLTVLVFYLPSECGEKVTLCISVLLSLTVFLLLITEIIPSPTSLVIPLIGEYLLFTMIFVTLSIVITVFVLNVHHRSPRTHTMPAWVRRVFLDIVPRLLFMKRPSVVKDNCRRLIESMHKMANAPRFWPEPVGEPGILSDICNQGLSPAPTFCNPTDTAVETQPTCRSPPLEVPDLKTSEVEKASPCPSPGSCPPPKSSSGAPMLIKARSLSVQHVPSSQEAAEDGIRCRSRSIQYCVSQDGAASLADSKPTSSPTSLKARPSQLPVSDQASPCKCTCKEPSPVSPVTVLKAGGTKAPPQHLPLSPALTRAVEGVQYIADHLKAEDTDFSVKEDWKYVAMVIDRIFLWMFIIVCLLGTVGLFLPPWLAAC
rat α4β4 nAChRs, sequence (P12392 25-495): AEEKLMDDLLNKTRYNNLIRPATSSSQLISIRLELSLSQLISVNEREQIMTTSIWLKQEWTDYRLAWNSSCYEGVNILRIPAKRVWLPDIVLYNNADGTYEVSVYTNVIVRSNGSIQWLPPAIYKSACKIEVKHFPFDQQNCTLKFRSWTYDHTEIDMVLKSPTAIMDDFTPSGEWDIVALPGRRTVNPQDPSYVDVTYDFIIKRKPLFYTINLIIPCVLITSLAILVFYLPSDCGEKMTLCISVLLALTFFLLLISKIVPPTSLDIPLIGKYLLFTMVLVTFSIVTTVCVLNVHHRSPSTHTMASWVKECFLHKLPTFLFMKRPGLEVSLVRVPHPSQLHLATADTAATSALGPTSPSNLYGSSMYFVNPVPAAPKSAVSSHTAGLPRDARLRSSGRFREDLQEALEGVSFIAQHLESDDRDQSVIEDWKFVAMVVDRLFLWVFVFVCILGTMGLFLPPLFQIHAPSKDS
A further experiment deals with human α4β2 nAChRs (Homo sapiens, UniProt P17787+P43681). The experiment can be described thus: Photoaffinity labeling. In kind it is binding. To be noted: ∼1 nM probe, 254 nm, α4 or β2 subunit.
human α4β2 nAChRs, sequence (P17787 26-502): as the sequence (P17787 26-502 F144Q) above, with Q119F counted along it
human α4β2 nAChRs, sequence (P43681 29-627): as the sequence (P43681 29-627, stated change not applied) above
Experiment [3] concerns the target α4β2F119Q, α4β2S113R and wild-type (WT) hα4β2 receptors. On the set-up: species or system human. The note with it: read-out: [3H]epibatidine binding affinities; range over α4β2F119Q, α4β2S113R and WT hα4β2 transiently expressed in HEK 293 cells.
In another experiment the target is α4β2F119Q receptors (Homo sapiens, UniProt P17787+P43681, F144Q). The experiment is classed as binding. To be noted: preincubation with 100 nM epibatidine.
α4β2F119Q receptors, sequence (P43681 29-627, stated change not applied): as above
α4β2F119Q receptors, sequence (P17787 26-502 F144Q): as the sequence (P17787 26-502 F144Q) above
Where [4] appears, read: read-out: EC50 of activation, 5 oocytes.

Where two headings read alike, the source gives them in different places.

α4 with wild-type β2 nAChR, (α4)2(β2)3, sequence (P43681 29-627 limits assumed): as the sequence (P43681 29-627, stated change not applied) above
α4 with wild-type β2 nAChR, (α4)2(β2)3, sequence (P17787 26-502): as the sequence (P17787 26-502 F144Q) above, with Q119F counted along it

Consider `Cl.Cl.Ic1cncc(OC[C@@H]2CCN2)c1` [5I-A-85380, 5-iodo-A-85380 dihydrochloride], for which the EC50 in experiment [1] (setting [4]) is 23 ± 2 nM; on α4 with β2F119Q nAChR (setting [4]), 338 ± 77 nM; in experiment [2] it was about 10 nM; on α4 with β2S113R nAChR (read-out: EC50 of activation, 7 oocytes) it was 30 ± 7 nM. Further, the IC50 at α4β4 receptor is 24 nM. Further, in the experiment with α4β2 and α4β4 nAChRs, the binding affinity is 0.062 to 24 nM. Also, in experiment [2] (compared with ACh), the maximal response entry is “larger than that for ACh itself”.

Consider `[125I]c1cncc(OCC2CCN2)c1` (stereo not shown) [5[^125I]A-85380], for which the pattern of photoincorporation result on rat α4β4 nAChRs (1 nM probe, 254 nm, 30 or 15 min) was “incorporated selectively into the β4 subunit”; at human α4β2 nAChRs, “very little if any photoincorporation”.

As for `CC(=O)OCC[N+](C)(C)C` [ACh, Acetylcholine chloride], the “actual amplitude of the ACh response” value was -0.8 μA in [1] (1 mM ACh, single oocyte trace); -0.03 μA on α4 with β2F119Q nAChR (1 mM ACh, single oocyte trace); -3.3 μA on α4 with β2S113R nAChR (1 mM ACh, single oocyte trace).

For `Clc1ccc(C2CC3CCC2N3)cn1` (stereo not shown) [[^3H]epibatidine], in experiment [3], the Kd was in the range of 0.4 to 0.7 nM.

Take `Clc1ccc(C2CC3CCC2N3)cn1` (stereo not shown) [epibatidine]: the “effect on labeling by radiolabeled agonist” value at rat α4β4 nAChRs is reported as “complete elimination of labeling”. For the same molecule, on α4β2F119Q receptors, the “effect on [125I]epibatidine labeling in the β2F119Q subunit” value is “completely eliminated labeling”.

For the molecule `Ic1ccc(C2CC3CCC2N3)cn1` (stereo not shown) [iodoepibatidine], the binding affinity in the experiment on α4β2 and α4β4 nAChRs is 0.062 to 24 nM.

On to `CN1CCC[C@H]1c1cccnc1` [nicotine], for which the “effect on labeling by radiolabeled agonist” value at rat α4β4 nAChRs (15 min preincubation with 100 μM nicotine or 100 nM epibatidine) is given as “complete elimination of labeling”. The “reduction of [125I]epibatidine labeling of β4 subunit and β4′ fragment” value at rat α4β4 nAChRs (co-application of 100 μM nicotine, γ-counting of excised gel bands) was over 50%.

With [^125I]epibatidine, the pattern of photoincorporation result on human α4β2 nAChRs is recorded as “very little if any photoincorporation”.
